# Reference: patent publication US8168800B2, “Aβ-binding small molecules” (The Regents of the University of California, priority 2007, dated 2012)
# pEC50: −log10 of the molar value.
# Biological target: T1, AβO (Homo sapiens, UniProt P05067)
# T1 construct: prepared by mixing a 1:10 ratio of biotinylated and unbiotinylated Aβ1-42 peptide
# Test: Electron microscopy (EM) of AβO size
# Assay type: biochemical
# Conditions: 24 hour incubation at 25° C.
# Description: To address the possible alternative explanation that the depolymerization effect observed for Compound A in the AFM experiment is due to Compound A altered binding of AβO to the AFM mica, the effect of Compound A and Compound B and Congo Red on AβO size was further analyzed by electron microscopy (EM) (see FIG. 5A and FIG. 5B). […] The representative electron micrographs presented in FIG. 5A show the size of the AβO aggregates after incubation with either Compound A, Compound B or Congo Red. FIG. 5B contains a histogram, which illustrates the size distribution of AβO without treatment or with treatment with Compound A, Compound B or Congo Red. It is apparent from EM images in FIG. 5A and in the histograms shown in FIG. 5B that after 24 hour incubation at 25° C. and in the absence of treatment with Compound A or Congo Red, AβO grew in size.
# T1 sequence (P05067 672-713 limits assumed): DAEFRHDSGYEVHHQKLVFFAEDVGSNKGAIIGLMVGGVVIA
row,SMILES,effect on number and size of AβO
1,Nc1c(/N=N/c2ccc(-c3ccc(/N=N/c4cc(S(=O)(=O)O)c5ccccc5c4N)cc3)cc2)cc(S(=O)(=O)O)c2ccccc12 [Congo Red],reduction in the number and size of AβO

# System: binding of AβO to synapses of cultured mouse hippocampal neurons
# Test: Synaptic binding assay
# Assay type: cell-based
# Conditions: 100 nM AβO: 1 μM compound, neurons 21 days in vitro
# Description: The strong binding of AβO to synapses induces aberration in synapse composition, shape, and density, and was proposed as the molecular basis for the loss of connectivity in AD (see, Lacor, et al., J. Neurosci. (2007) 27:796-807). A synaptic binding assay was performed as described by Lacor et al. (2007), which is incorporated herein by reference, with minor modifications to test the effectiveness of a compound of Formula I (e.g., Compound A) to reduce or to prevent the binding of AβO to synapses. AβO prepared from the N-terminal biotinylated Aβ1-42 peptide was incubated either with 10 equivalents compounds (i.e., 100 nM AβO: 1 μM Compound A), or with DMSO (i.e., the solvent for the compounds used only as a negative control) for five minutes, then added to cultured mouse hippocampal neurons that had been cultured 21 days in vitro. After 5 minute incubation, the neurons were washed, fixed, and stained with streptavidin-Alexa594 for bound AβO. […] The density of puncta per unit dendritic area was quantified using the Image J program and the resulting bar graph is presented in the far right panel.
row,SMILES,fluorescent puncta (AβO bound to synapses)
1,Nc1c(/N=N/c2ccc(-c3ccc(/N=N/c4cc(S(=O)(=O)O)c5ccccc5c4N)cc3)cc2)cc(S(=O)(=O)O)c2ccccc12 [Congo Red],substantially reduced number of puncta

# System: AβO cytotoxicity
# Test: Rapid MTT formazan exocytosis (MTT-FE) assay
# Assay type: cell-based
# Conditions: AβO:Compound 1:0 to 1:4, 1 hour, TS-/TI-MTT
# Description: In the rapid MTT formazan exocytosis (MTT-FE) assay, AβO was combined with LRL 03, LRL 15, Compound A or Congo Red (2.5 μM solution) at a ratio of 1:0, 1:1, 1:2 or 1:4 (AβO:Compound) and incubated for 1 hour, followed by measurement of the degree of formazan exocytosis. […] In particular, cellular MTT formazan was fractionated into the Triton soluble (TS) and insoluble (TI) MTT and quantified and shown in FIG. 7B.
row,SMILES,neutralization of AβO cytotoxicity
1,Nc1c(/N=N/c2ccc(-c3ccc(/N=N/c4cc(S(=O)(=O)O)c5ccccc5c4N)cc3)cc2)cc(S(=O)(=O)O)c2ccccc12 [Congo Red],able to neutralize AβO cytotoxicity

# System: SDS-stable AβO in MC65 cells
# Test: SDS-PAGE and Western blot (6E10) of MC65 cell homogenates
# Assay type: cell-based
# Conditions: 1 μM, 24 hour cultures, 6E10 Western blot
# From the text: See, Maezawa et al. J Neurochem (2006) 98:57-67, which is incorporated herein by reference.
row,SMILES,levels of SDS-stable AβO
1,"NC(=O)c1ccc2c(c1)nc(Nc1ccc(I)cc1)n2CCOc1ccccc1 [LRL 19, 2-(4-iodophenylamino)-1-(2-phenoxyethyl)-1H-benzo[d]imidazole-5-carboxamide, reference compound]",decreased the levels of SDS-stable AβO
2,"NC(=O)[C@H](Cc1ccc(O)c(O)c1)NC(=O)c1ccc2c(c1)nc(Nc1cccc(Br)c1)n2CCOc1ccccc1 [LRL 13, (S)—N-(1-amino-3-(3,4-dihydroxyphenyl)-1-oxopropan-2-yl)-2-(3-bromophenylamino)-1-(2-phenoxyethyl)-1H-benzo[d]imidazole-5-carboxamide, reference compound]",decreased the levels of SDS-stable AβO

# System: MC65 cells
# Test: MC65 cell protection (cell viability) assay;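 further: intraneuronal AβO toxicity triggered by withdrawing tetracycline, which suppresses the C99 transgene, MTT formazan viability read-out, with tetracycline-maintained cultures taken as 100%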
# Conditions: not given
row,SMILES,protection of MC65 cells from death
1,"NC(=O)c1ccc2c(c1)nc(Nc1ccc(I)cc1)n2CCOc1ccccc1 [LRL 19, 2-(4-iodophenylamino)-1-(2-phenoxyethyl)-1H-benzo[d]imidazole-5-carboxamide, reference compound]",protect MC65 cells from death
2,"Cc1c(C(N)=O)c(=O)oc2cc3c(cc12)nc(Nc1ccccc1Br)n3CCOc1ccccc1 [Compound C, 2-(2-Bromo-phenylamino)-8-methyl-6-oxo-3-(2-phenoxy-ethyl)-3,6-dihydro-chromeno[6,7-d]imidazole-7-carboxylic acid amide]",inactive
3,"NC(=O)[C@H](Cc1ccc(O)c(O)c1)NC(=O)c1ccc2c(c1)nc(Nc1cccc(Br)c1)n2CCOc1ccccc1 [LRL 13, (S)—N-(1-amino-3-(3,4-dihydroxyphenyl)-1-oxopropan-2-yl)-2-(3-bromophenylamino)-1-(2-phenoxyethyl)-1H-benzo[d]imidazole-5-carboxamide, reference compound]",protect MC65 cells from death

# Same assay, conditions: MC65
row,SMILES,pEC50
1,COc1ccc(Nc2nc3cc4c(C)c(C(N)=O)c(=O)oc4cc3n2-c2cccc(Br)c2)cc1 [D.33],< 5.00
2,Cc1c(C(N)=O)c(=O)oc2cc3c(cc12)nc(Nc1cccc(I)c1)n3CCc1ccc(Br)cc1 [D.8],> 6.00
3,Cc1c(C(N)=O)c(=O)oc2cc3c(cc12)nc(Nc1cccc(I)c1)n3CCOc1ccccc1 [D.9],> 6.00
4,Cc1c(C(N)=O)c(=O)oc2cc3c(cc12)nc(Nc1ccc(OC(F)(F)F)cc1)n3Cc1cccc(Br)c1 [D.29],> 6.00
5,COc1ccc(Nc2nc3cc4c(C)c(C(N)=O)c(=O)oc4cc3n2CCc2cccc(Cl)c2)cc1 [D.27],> 6.00
6,COc1ccc(Nc2nc3cc4c(C)c(C(N)=O)c(=O)oc4cc3n2Cc2ccc(I)cc2)cc1 [D.25],> 6.00
7,COc1ccc(Nc2nc3cc4c(C)c(C(N)=O)c(=O)oc4cc3n2Cc2cccc(I)c2)c(OC)c1 [D.19],> 6.00
8,COc1ccc(Nc2nc3cc4c(C)c(C(N)=O)c(=O)oc4cc3n2Cc2ccc(Br)cc2)cc1 [D.24],> 6.00
9,Cc1c(C(N)=O)c(=O)oc2cc3c(cc12)nc(Nc1cccc(Br)c1)n3CCOc1ccccc1 [D.1],> 6.00
10,COc1ccc(Nc2nc3cc4c(C)c(C(N)=O)c(=O)oc4cc3n2Cc2cccc(F)c2)cc1 [D.21],> 6.00
11,Cc1c(C(N)=O)c(=O)oc2cc3c(cc12)nc(Nc1cccc(I)c1)n3C [D.11],5.00 to 6.00
12,COc1ccc(Nc2nc3cc4c(C)c(C(N)=O)c(=O)oc4cc3n2CCc2ccc(Br)cc2)cc1 [D.26],> 6.00
13,COCCn1c(Nc2cccc(I)c2)nc2cc3c(C)c(C(N)=O)c(=O)oc3cc21 [D.6],< 5.00
14,Cc1c(C(N)=O)c(=O)oc2cc3c(cc12)nc(Nc1ccc(OC(F)(F)F)cc1)n3Cc1ccc(Cl)cc1 [D.31],> 6.00
15,COc1ccc(Nc2nc3cc4c(C)c(C(N)=O)c(=O)oc4cc3n2Cc2cccc(Cl)c2)cc1 [D.22],> 6.00
16,Cc1c(C(N)=O)c(=O)oc2cc3c(cc12)nc(Nc1ccc(C#N)cc1)n3Cc1ccc(I)cc1 [D.35],> 6.00
17,Cc1c(C(N)=O)c(=O)oc2cc3c(cc12)nc(Nc1cccc(I)c1)n3CC(F)F [D.14],5.00 to 6.00
18,Cc1c(C(N)=O)c(=O)oc2cc3c(cc12)nc(Nc1ccc(OC(F)(F)F)cc1)n3Cc1cccc(I)c1 [D.30],> 6.00

row,SMILES,pEC50
1,COc1ccc(Nc2nc3cc4c(C)c(C(N)=O)c(=O)oc4cc3n2Cc2ccc(Cl)cc2)cc1 [D.23],> 6.00
2,Cc1c(C(N)=O)c(=O)oc2cc3c(cc12)nc(Nc1ccc(OC(F)(F)F)cc1)n3Cc1ccc(Br)cc1 [D.32],> 6.00
3,COc1ccc(Nc2nc3cc4c(C)c(C(N)=O)c(=O)oc4cc3n2Cc2cccc(I)c2)cc1 [D.16],> 6.00
4,C#CCn1c(Nc2cccc(I)c2)nc2cc3c(C)c(C(N)=O)c(=O)oc3cc21 [D.4],5.00 to 6.00
5,Cc1c(C(N)=O)c(=O)oc2cc3c(cc12)nc(Nc1ccc(C#N)cc1)n3Cc1ccc(Br)cc1 [D.34],> 6.00
6,Cc1c(C(N)=O)c(=O)oc2cc3c(cc12)nc(Nc1cccc(I)c1)n3CCO [D.5],< 5.00
7,COc1ccc(Nc2nc3cc4c(C)c(C(N)=O)c(=O)oc4cc3n2Cc2cccc(Br)c2)cc1 [D.20],> 6.00
8,CSc1cccc(Nc2nc3cc4c(C)c(C(N)=O)c(=O)oc4cc3n2Cc2cccc(I)c2)c1 [D.18],> 6.00
9,Cc1c(C(N)=O)c(=O)oc2cc3c(cc12)nc(Nc1cccc(I)c1)n3Cc1cccc(I)c1 [D.15],> 6.00
10,COc1ccc(Nc2nc3cc4c(C)c(C(N)=O)c(=O)oc4cc3n2CCOc2ccccc2)cc1 [D.10],> 6.00
11,Cc1c(C(N)=O)c(=O)oc2cc3c(cc12)nc(Nc1ccccc1Br)n3CCOc1ccccc1 [D.3],< 5.00
12,COc1ccc(CCn2c(Nc3cccc(I)c3)nc3cc4c(C)c(C(N)=O)c(=O)oc4cc32)cc1 [D.7],> 6.00
13,CCCn1c(Nc2cccc(I)c2)nc2cc3c(C)c(C(N)=O)c(=O)oc3cc21 [D.12],> 6.00
14,Cc1c(C(N)=O)c(=O)oc2cc3c(cc12)nc(Nc1ccc(OC(F)(F)F)cc1)n3Cc1cccc(Cl)c1 [D.28],> 6.00
15,Cc1c(C(N)=O)c(=O)oc2cc3c(cc12)nc(Nc1ccc(I)cc1)n3CCOc1ccccc1 [D.2],> 6.00
16,COc1cccc(Nc2nc3cc4c(C)c(C(N)=O)c(=O)oc4cc3n2Cc2cccc(I)c2)c1 [D.17],> 6.00
17,Cc1c(C(N)=O)c(=O)oc2cc3c(cc12)nc(Nc1cccc(I)c1)n3CC1CC1 [D.13],> 6.00
